# Values quoted from earlier work in US8377956B2, “Use of (3R)-4-{[(1S)-2-methyl-1-(2-methylpropanoyloxy)propoxy]carbonylamino}-3-(4-chlorophenyl) butanoic acid for treating urinary incontinence” (XenoPort, Inc., priority 2010, dated 2013).
# Tested on: patients with unstable bladder syndrome
# Details: 5 mg four times per day
smiles,measurement,value
"NCC(CC(=O)O)c1ccc(Cl)cc1 (racemic) [baclofen, (±)-4-Amino-3-(4-chlorophenyl)butanoic acid]",diurnal and nocturnal frequency of micturition,significantly improve
same,severity of incontinence,significantly improve
